Our source for the inhibition values is patent US7511047B2, “Kinase inhibitors” (Cytopia Research Pty Ltd, priority 2002, dated 2009).

What all share (format): biochemical
For test [1], the target named is T1, abl (Homo sapiens, UniProt P00519).
T1 sequence (P00519 242-493 limits assumed): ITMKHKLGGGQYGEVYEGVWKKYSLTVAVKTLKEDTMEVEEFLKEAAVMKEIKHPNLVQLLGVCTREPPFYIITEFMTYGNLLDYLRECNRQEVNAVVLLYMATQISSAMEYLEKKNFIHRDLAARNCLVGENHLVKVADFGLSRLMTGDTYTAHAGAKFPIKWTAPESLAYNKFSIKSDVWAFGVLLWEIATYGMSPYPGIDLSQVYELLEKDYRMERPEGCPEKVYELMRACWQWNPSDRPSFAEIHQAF
Kind of test: abl kinase assay (ELISA or Alphascreen). To be noted: capacity to inhibit 50% of activity at 50 μM; read-out: abl inhibitory activity. The protocol: (§1) For screening purposes, compounds were diluted in 96 well plates at a concentration of 20 μM. Plates were warmed at 37° C. for 30 minutes before assay.
(§2) Kinase assays were performed either in a 96 well capture-based ELISA assay or in 384 well Optiplates (Packard) using an Alphascreen Protein Tyrosine Kinase kit. In either casse using approximately 1.5 μg of affinity purified PTK domain in the presence of 50 mM HEPES, pH 7.5, 10 mM MgCl2, 150 mM NaCl and 10 μM-1 mM ATP. The biotinylated substrate biotin-EGPWLEEEEEAYGWMDF-NH2 (SEQ ID NO:9) (final concentration 5 μM) was used as substrate. In the ELISA assay tyrosine phosphorylation was quantitated following transfer to an avidin coated ELISA plate using peroxidase-linked anti-phospho-tyrosine antibody PY20. In the Alphascreen assay, Alphascreen phosphotyrosine acceptor beads followed by streptavidin donor beads were added under subdued light. The ELISA plates were read on a BMG Fluorostar, the Alphascreen plates were read on a Packard Fusion Alpha. Inhibitors were added to the assays fifteen minutes prior to the addition of ATP. Inhibitors were added in aqueous DMSO, with DMSO concentrations never exceeding 1%.

Test [2] deals with hck (Homo sapiens, UniProt P08631). In words: hck kinase assay (ELISA or Alphascreen). To be noted: capacity to inhibit 50% of activity at 50 μM; read-out: hck inhibitory activity. On the procedure:
as §1, §2
A general note: In an ELISA, binding on a coated surface is turned into a signal by an enzyme label.

The target in test [3] is T2, Jak2 (Homo sapiens, UniProt O60674).
T2 construct: The kinase domain of humanJAK2 was amplified from U937mRNA; His tag (from pFastBac HTc vector) (N); made in house; host or cells: baculovirus; Sf9 insect cells for virus, High Five cells for large-scale production
In words: JAK2 kinase domain assay (ELISA or Alphascreen). To be noted: capacity to inhibit 50% of activity at 50 μM; read-out: Jak2 inhibitory activity. The protocol:
as §1
• JAK1 PCR products were cloned into the pFastBac HTb expression vector (Gibco) via the Xho I and Kpn I sites. The JAK1 plasmid was then transformed into competent DH10Bac cells (Gibco), and the recombinant baculovirus produced prepared for transfection into Sf9 insect cells. JAK2 • The kinase domain of humanJAK2 was amplified from U937mRNA using the polymerase chain reaction with the following primers:
• JAK2 PCR products were cloned into the pFastBac HTc expression vector (Gibco) via the Sal I and Not I sites. The JAK2 plasmid was then transformed into competent DH10Bac cells (Gibco), and the recombinant baculovirus produced prepared for transfection into Sf9 insect cells. JAK3 • The kinase domain of humanJAK3 was amplified from U937mRNA using the polymerase chain reaction with the following primers: […]
(§3) Baculovirus preparations from each of the JAK family members were infected into five litres of High Five cells (Invitrogen) grown in High Five serum free medium (Invitrogen) to a cell density of approximately 1-2×10^6 cells/ml. Cells are infected with virus at a MOI of 0.8-3.0. Cells were harvested and lysed. JAK kinase domains were purified by affinity chromatography on a Probond (Invitrogen) nickel chelate affinity column.
as §2

In test [4] the target is kdr (Homo sapiens, UniProt P35968). Kind of test: kdr kinase assay (ELISA or Alphascreen). To be noted: capacity to inhibit 50% of activity at 50 μM; read-out: kdr inhibitory activity. On the procedure: as §1, §2
Test [5] deals with T3, Jak3 (Homo sapiens, UniProt P52333).
T3 construct: The kinase domain of humanJAK3 was amplified from U937mRNA; His tag (from pFastBac HTb vector) (N); made in house; host or cells: baculovirus; Sf9 insect cells for virus, High Five cells for large-scale production
In words: JAK3 kinase domain assay (ELISA or Alphascreen). Conditions: capacity to inhibit 50% of activity at 50 μM; read-out: Jak3 inhibitory activity. The protocol:
as §1
• JAK2 PCR products were cloned into the pFastBac HTc expression vector (Gibco) via the Sal I and Not I sites. The JAK2 plasmid was then transformed into competent DH10Bac cells (Gibco), and the recombinant baculovirus produced prepared for transfection into Sf9 insect cells. JAK3 • The kinase domain of humanJAK3 was amplified from U937mRNA using the polymerase chain reaction with the following primers:
• JAK3 PCR products were cloned into the pFastBac HTb expression vector (Gibco) via the Xho I and Kpn I sites. The JAK3 plasmid was then transformed into competent DH10Bac cells (Gibco), and the recombinant baculovirus produced prepared for transfection into Sf9 insect cells. TYK2 • The kinase domain of humanTYK2 was amplified from A549 mRNA using the polymerase chain reaction with the following primers: […]
as §3, §2

Sequence of kdr (P35968 834-1162 limits assumed, species assumed): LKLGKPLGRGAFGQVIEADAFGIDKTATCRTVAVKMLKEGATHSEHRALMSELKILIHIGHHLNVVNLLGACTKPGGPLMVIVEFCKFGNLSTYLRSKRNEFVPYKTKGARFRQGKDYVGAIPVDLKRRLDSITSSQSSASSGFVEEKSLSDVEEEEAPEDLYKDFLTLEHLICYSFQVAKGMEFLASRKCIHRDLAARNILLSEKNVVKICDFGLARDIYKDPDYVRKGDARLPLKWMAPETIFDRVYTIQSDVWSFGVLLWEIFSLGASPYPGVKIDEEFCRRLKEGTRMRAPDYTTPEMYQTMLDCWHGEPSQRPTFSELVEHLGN
T2 sequence (O60674 849-1124 limits assumed): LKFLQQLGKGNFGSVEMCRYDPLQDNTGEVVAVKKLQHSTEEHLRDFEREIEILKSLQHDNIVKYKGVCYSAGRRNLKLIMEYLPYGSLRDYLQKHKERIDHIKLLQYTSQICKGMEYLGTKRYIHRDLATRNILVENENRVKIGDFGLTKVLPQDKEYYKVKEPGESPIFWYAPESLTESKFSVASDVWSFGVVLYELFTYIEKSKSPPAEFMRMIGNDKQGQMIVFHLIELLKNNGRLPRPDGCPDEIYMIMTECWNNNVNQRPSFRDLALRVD
T3 sequence (P52333 822-1111 limits assumed): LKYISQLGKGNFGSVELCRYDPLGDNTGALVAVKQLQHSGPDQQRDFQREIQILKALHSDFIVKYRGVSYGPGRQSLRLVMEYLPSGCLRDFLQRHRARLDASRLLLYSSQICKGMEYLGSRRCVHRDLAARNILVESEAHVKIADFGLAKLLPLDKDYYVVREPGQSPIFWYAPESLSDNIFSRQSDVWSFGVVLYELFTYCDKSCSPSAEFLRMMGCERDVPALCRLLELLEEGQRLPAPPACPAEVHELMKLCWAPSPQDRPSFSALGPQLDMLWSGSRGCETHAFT
Sequence of hck (P08631 262-515 limits assumed, species assumed): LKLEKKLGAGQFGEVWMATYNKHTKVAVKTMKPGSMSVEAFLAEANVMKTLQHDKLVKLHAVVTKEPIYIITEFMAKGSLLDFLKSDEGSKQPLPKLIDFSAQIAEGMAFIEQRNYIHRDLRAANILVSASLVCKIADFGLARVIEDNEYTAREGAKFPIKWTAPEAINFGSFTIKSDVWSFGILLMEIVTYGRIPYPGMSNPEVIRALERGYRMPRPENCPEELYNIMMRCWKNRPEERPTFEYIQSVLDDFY

Take `C[C@@H](Nc1cncc(-n2ccnc2)n1)c1ccccc1`: the inhibition at 50 µM in test [1] is above 50%; in test [2], above 50%; in test [3], below 50%; in test [4], below 50%; in test [5], below 50%.

For the compound `c1ccc(CNc2cncc(-n3cnc4ccccc43)n2)cc1`, the inhibition at 50 µM is above 50% in test [1]; above 50% in test [2]; above 50% in test [3]; below 50% in test [4]; above 50% in test [5].

On to `C[C@H](Nc1cncc(-n2cnc3ccc(NC(=O)c4ccncc4)cc32)n1)c1ccccc1`, for which the inhibition at 50 µM was above 50% in test [1]; below 50% in test [2]; above 50% in test [3]; above 50% in test [4]; below 50% in test [5].

On to `C[C@H](Nc1cncc(-n2cnc3cc(C4=NCCO4)ccc32)n1)c1ccccc1`, for which the inhibition at 50 µM is above 50% in test [1]; above 50% in test [2]; below 50% in test [3]; above 50% in test [4]; below 50% in test [5].

As for `C[C@H](Nc1cncc(-n2cnc3ccc(C(=O)NCCO)cc32)n1)c1ccccc1`, the inhibition at 50 µM in test [1], in test [2], in test [3], in test [4] and in test [5] was above 50% in each case.

`CNC(=O)c1ccc2c(c1)ncn2-c1cncc(N[C@@H](C)c2ccccc2)n1`: the inhibition at 50 µM in test [1] was above 50%; in test [2], above 50%; in test [3], above 50%; in test [4], above 50%; in test [5], below 50%.

In the case of `CNC(=O)c1ccc2ncn(-c3cncc(N[C@@H](C)c4ccccc4)n3)c2c1`, the inhibition at 50 µM in test [1], in test [2], in test [3], in test [4] and in test [5] was above 50% in each case.

As to `C[C@H](Nc1cncc(-n2cnc3ccc(N)cc32)n1)c1ccccc1`, the inhibition at 50 µM is above 50% in test [1]; above 50% in test [2]; above 50% in test [3]; above 50% in test [4]; below 50% in test [5].

For the compound `C[C@H](Nc1cncc(-n2cnc3cc(N)ccc32)n1)c1ccccc1`, the inhibition at 50 µM is above 50% in test [1]; above 50% in test [2]; above 50% in test [3]; above 50% in test [4]; below 50% in test [5].

Turning to `C[C@H](Nc1cncc(-n2cnc3cc(C(=O)NCc4ccccc4)ccc32)n1)c1ccccc1`, the inhibition at 50 µM is above 50% in test [1]; above 50% in test [2]; below 50% in test [3]; above 50% in test [4]; below 50% in test [5].

For `C[C@H](Nc1cncc(-n2cnc3cc(C(=O)Nc4ccccc4)ccc32)n1)c1ccccc1`, the inhibition at 50 µM in test [1] was above 50%; in test [2], above 50%; in test [3], below 50%; in test [4], below 50%; in test [5], below 50%.

On to `C[C@H](Nc1cncc(-n2cnc3ccc(NC(=O)c4cccnc4)cc32)n1)c1ccccc1`, for which the inhibition at 50 µM in test [1] is above 50%; in test [2], above 50%; in test [3], above 50%; in test [4], above 50%; in test [5] it was below 50%.

Regarding `C[C@H](Nc1cncc(-n2cnc3ccc(NC(=O)C(C)(C)C)cc32)n1)c1ccccc1`, the inhibition at 50 µM in test [1], in test [2], in test [3], in test [4] and in test [5] was above 50% each time.

As for `C[C@H](Nc1cncc(-n2cnc3cc(NC(=O)C(C)(C)C)ccc32)n1)c1ccccc1`, the inhibition at 50 µM in test [1], in test [2], in test [3], in test [4] and in test [5] was above 50% in each case.

With `COCC(=O)Nc1ccc2c(c1)ncn2-c1cncc(N[C@@H](C)c2ccccc2)n1`, the inhibition at 50 µM in test [1] was above 50%; in test [2], above 50%; in test [3] it was below 50%; in test [4], above 50%; in test [5], below 50%.

As for `COCC(=O)Nc1ccc2ncn(-c3cncc(N[C@@H](C)c4ccccc4)n3)c2c1`, the inhibition at 50 µM in test [1] was above 50%; in test [2] it was above 50%; in test [3], above 50%; in test [4] it was above 50%; in test [5] it was below 50%.

`CC(=O)Nc1ccc2ncn(-c3cncc(N[C@@H](C)c4ccccc4)n3)c2c1`: the inhibition at 50 µM is above 50% in test [1]; above 50% in test [2]; above 50% in test [3]; above 50% in test [4]; below 50% in test [5].

For `CC(=O)Nc1ccc2c(c1)ncn2-c1cncc(N[C@@H](C)c2ccccc2)n1`, the inhibition at 50 µM in test [1] was above 50%; in test [2], above 50%; in test [3], below 50%; in test [4], above 50%; in test [5], below 50%.

As for `C[C@H](Nc1cncc(-n2cnc3ccc(NC(=O)c4ccccc4)cc32)n1)c1ccccc1`, the inhibition at 50 µM was above 50% in test [1]; above 50% in test [2]; below 50% in test [3]; above 50% in test [4]; below 50% in test [5].

As for `C[C@H](Nc1cncc(-n2cnc3cc(NC(=O)c4ccccc4)ccc32)n1)c1ccccc1`, the inhibition at 50 µM was above 50% in test [1]; above 50% in test [2]; below 50% in test [3]; above 50% in test [4]; below 50% in test [5].

For `C[C@H](Nc1cncc(-n2cnc3cc(NCc4cccnc4)ccc32)n1)c1ccccc1`, the inhibition at 50 µM in test [1], in test [2], in test [3], in test [4] and in test [5] was above 50% in each case.

Take `C[C@H](Nc1cncc(-n2cnc3ccncc32)n1)c1ccccc1`: the inhibition at 50 µM in test [1], in test [2], in test [3], in test [4] and in test [5] was above 50% throughout.

`C[C@H](Nc1cncc(-n2cnc3ccc(NC(=O)c4cnccn4)cc32)n1)c1ccccc1`: the inhibition at 50 µM in test [1] was below 50%; in test [2] it was above 50%; in test [3], above 50%; in test [4] it was above 50%; in test [5], below 50%.
